# Source: patent publication US20030078304A1, “Method of inhibiting the expression of inflammatory cytokines and chemokines” (priority 2000, published 2003)
# System: NF-κB
# Assay: NF-κB-dependent luciferase reporter gene assay in UV-C exposed HeLa cells
# Format: cell-based, human
# Method: HeLa cells were transfected with a NF-κB-dependent reporter gene and exposed to UV-C 24 hours after transfection. Pretreatment with Astaxanthin was done 3 hours prior to irradiation, where indicated. Cells were harvested and luciferase activity was measured 14-18 hours following exposure. The ratio between Firefly and Renilla luciferase activity is represented as fold activation over the activity in unstimulated control cells. The standard error is based on two identical experiments.
# The human […] cell line Hela Tet/off was cultured in MEM alpha medium supplemented with 10% fetal calf serum, penicillin and streptomycin (Gibco Grand Island, N.Y.). The day before transfection, cells were plated on 6 cm dishes in a medium containing 2.5% fetal calf serum. On the day of transfection, the cell culture medium was changed to fresh medium (2.5% fetal calf serum).
# A stock solution of Astaxanthin was prepared by dissolving synthetic Astaxanthin (Sigma) in 99.6% ethanol. The concentration of Astaxanthin was measured by spectrophotometry, and the absorbance maximum at 474-479 run was used to calculate the concentration, according to the formula: Absmax/210.
# The 6XκB-Luc plasmid contains a firefly luciferase reporter gene driven by 6 NF-κB binding sites cloned upstream of a TK promoter (Meyer et al. 1993). […]
structure (smiles),measurement,setting,value
CC1=C(/C=C/C(C)=C/C=C/C(C)=C/C=C/C=C(C)/C=C/C=C(C)/C=C/C2=C(C)C(=O)[C@@H](O)CC2(C)C)C(C)(C)C[C@H](O)C1=O [Astaxanthin],effect on the activation of NF-κB effected by UV exposure,"HeLa cells transfected with NF-κB-dependent reporter gene, UV-C, pretreatment 3 hours prior to irradiation (FIG. 1)",inhibits the activation of NF-κB effected by UV exposure
same,repression of UV-C induced activation of NF-κB-dependent reporter gene,"HeLa cells, 6xκB-Luc reporter, UV-C 10 J/m^2, Astaxanthin pretreatment 3 hours at the highest concentration, luciferase 14-18 hours after exposure",~3 fold
